In a melting point compilation (Tetko et al.; mined from patent text by program, amines drawn as free bases though some values may be those of a salt):

SMILES | melting point
CC(=O)ON1C(C)(C)CC(OC(=O)c2cccc(C(=O)OC3CC(C)(C)N(OC(C)=O)C(C)(C)C3)c2)CC1(C)C | 98 to 101 °C
CCCCOc1nc(N)c2[nH]c(=O)n(CCCCN(CCN3CCCC3)S(=O)(=O)c3cccc(CC(=O)O)c3)c2n1 | 192 to 193 °C
CN1CCN(c2cc3c(cc2F)c(=O)c(C(=O)O)c2ccccn23)CC1 | 264 to 266 °C
N=C(N)c1ccc(S(=O)(=O)NCCc2ccc(OCC(=O)O)cc2)cc1 | 292 to 293 °C
CC(=O)N(C(C)=O)c1ccc(C2=NN(C(C)=O)C(C)Cc3cc4c(cc32)OCO4)cc1 (stereo unspecified) | 224 to 227 °C
O=c1ccc(-c2c(-c3ccccc3)nn3ccccc23)nn1C1CN2CCC1CC2 (stereo unspecified) | 191 to 193 °C
Cc1c2n(c3ccccc13)C(=O)N(Cc1ncn(C(c3ccccc3)(c3ccccc3)c3ccccc3)c1C)CC2 | 210 to 220 °C
CC1(C)OC(=O)C(c2cccc3nnsc23)C(=O)O1 | 170 to 172 °C
CC(C)(C)c1ccc(-c2ccc3c(c2)C=C(C(=O)O)CCO3)cc1 | 259 to 261 °C
N#Cc1cc(S(=O)(=O)C(F)(F)F)[nH]c1-c1ccc(Cl)cc1 | 228 to 230 °C
CCCCc1nc(C)n2[nH]c(=O)nc2c1Cc1ccc(-c2ccccc2C(=O)O)cc1 | 210 to 211 °C
CCCn1ncc2c(C3C(=O)Nc4ccc(C#N)cc43)ncnc21 (stereo unspecified) | > 300 °C
CC(C)(C#N)c1cc(CO)cc(Cn2cncn2)c1 | 111 to 113 °C
CC(=O)Nc1ccc(S(=O)(=O)NCC2CCN(C[C@H]3COc4ccc(Cl)cc4O3)CC2)cc1 | 173 to 176 °C
OC(CCl)(Cc1ccccc1)c1ccc(-c2ccccc2)cc1 (stereo unspecified) | 96 °C
O=C(CCCN1CCC(c2ccccc2Cc2ccccc2)C1)c1ccc(F)cc1 (stereo unspecified) | 126 to 128 °C
CCOC(=O)c1c(OC(C)=O)c2ccccc2c2nc3ccccc3nc12 | 195 to 196 °C
CCOC(=O)CN1CCN(CCOc2cc3c(Nc4cccc(Br)c4)ncnc3cc2OC)CC1 | 155 °C
CC(C)(C)OC(=O)N1CCC(C(=O)N2CCC(c3[nH]nc4c3C(=O)c3c(NC(=O)NN5CCOCC5)cccc3-4)CC2)CC1 | 220 to 222 °C
CC(C)n1cnc(-c2ccc(F)cc2)c1-c1ccncc1 | 179 to 180 °C
C=CCNc1nc(C2C(=O)Nc3ccc(C#N)cc32)c2cn(C3CCCC3)nc2n1 (stereo unspecified) | > 300 °C
CC(NS(C)(=O)=O)c1ccc2[nH]cc(CCN3C(=O)c4ccccc4C3=O)c2c1 (stereo unspecified) | 203 to 205 °C
CC(COc1ccc(O)c(C(N)=O)c1)N(Cc1ccccc1)CC(O)COc1ccc(OCc2ccccc2)cc1 (stereo unspecified) | 149 to 160 °C
CC(=NC(C#N)=C(N)C#N)c1ccco1 | 175 to 176 °C
CC(CC(F)(F)C(F)(F)C(F)(F)C(F)(F)CC(C)C(=O)O)C(=O)O (stereo unspecified) | 166 to 168 °C

SMILES | melting point
CCOC=Cc1c(OC)c(=O)[nH]c2cc(Cl)ccc2c1=O | 202 to 204 °C
Cc1nc(NC(=N)N)sc1C(=O)Nc1cccc(OCC(=O)O)c1 | 284 °C
CCCCNC(N)=Nc1nc(-c2cccc(CNC(C)=O)n2)cs1 | 145 to 146 °C
N#CN=C(NCc1ccccc1)Nc1cccnc1 | 189 to 190 °C
CNS(=O)(=O)c1cc2c(c(C(=O)NC3CCN(Cc4ccccc4)CC3)c1)OCCO2 | 228 °C
CO[C@H]1O[C@@H](C)[C@@H]2[C@H](/C=C/[C@H]3CCC[C@H](C)N3C(=O)OC(C)(C)C)[C@H]3CCCC[C@@H]3C[C@H]12 | 90.5 to 92.5 °C
C[C@@H]1CCC[C@H](C)N1CCNC(=O)CN1CCCC1=O | 93 to 94.5 °C
CN1CC2CN(C(=O)N3c4ccccc4C(=O)Nc4cccnc43)CC2C1 (stereo unspecified) | 157 to 159 °C
CN(C)S(=O)(=O)Oc1ccc2c(c1)CCC1C2CCC2(C)C(O)C(O)CC12 (stereo unspecified) | 180 to 181 °C
Cc1cc(I)ccc1Nc1c(-c2nnco2)ccc(F)c1F | 144 to 146 °C
COC(=O)c1ccc(SC)cc1N | 57 to 59 °C
S=C1Nc2ccc(Cl)cc2CS1 | 217 to 222 °C
CCCn1c(COCC)nc2c(N)nc3ccc(OC4CCN(C(=O)C(C)C)CC4)cc3c21 | 177 to 179 °C
CC1(C)CNC(=O)N1CC#CCN1CCCC1 | 50 °C
CN(C(=O)c1ccc2nonc2c1)C1CCCCC1O (stereo unspecified) | 148 to 149 °C
CC1=N/C(=C\c2c[nH]c3ncccc23)C(=O)N1 | 277 to 281 °C
CC(O)CCCCCCCC(O)c1ccc(OCc2ccccc2)c(OCc2ccccc2)c1 (stereo unspecified) | 66 °C
N#Cc1ccccc1NC(=O)Nc1ccc(S(N)(=O)=O)cc1 | 256 to 258 °C
COC(=O)c1cccc(N)c1S | 174 to 175 °C
CCn1c(=O)c(C)cc2cnc(S(C)=O)nc21 (stereo unspecified) | 148 to 150 °C
CCCc1nn(-c2ccc(C(F)(F)F)cn2)cc1CCCOc1ccc(CCC(=O)O)cc1OC | 126 to 127 °C
CCN(CC)C(=O)c1c2nc3c(C(=O)N(CC)CC)c(N)c(O)c(C)c3oc-2c(C)c(=O)c1N | 262 to 265 °C
Cc1oc(=O)oc1CN1CCN(c2cc3c(cc2F)c(=O)c(C(=O)O)c2n3C(c3ccccc3)S2)CC1 (stereo unspecified) | 201 to 202 °C
Cc1ccc(Cn2nc(C(=O)O)cc2-c2ccc(F)cc2)cc1Cl | 120 °C

The remaining lines, values ahead:

melting point | SMILES
295 to 297 °C | COc1ccccc1-c1nc2ccc(C(=O)O)cc2c(=O)[nH]1
38 to 40 °C | CC(C)(S)CNc1ccccc1N
204 to 206 °C | CC(=O)OCC1=C(C(=O)O)N2C(=O)C(=NSc3ccc(C)cc3)C2SC1 (stereo unspecified)
91 to 92 °C | CC(=Cc1ccc(C(=O)O)cc1)c1cc2c(cc1C)C(C)(C)CCC2(C)C
115 to 116 °C | COC(=O)c1ccc2c(=O)c3ccccc3ccc2c1
135 to 137 °C | O=C(c1ccc(Cl)cc1)c1cc2ccccc2cc1O
126 to 128 °C | Cc1cc(C)n(CC(C)C)c(=O)c1C#N
184 °C | Cc1csc2ccc3[nH]c4c(c3c12)CN(CCCN(C)C)CC4
245 to 248 °C | NC(=O)c1c(I)cc(I)c(C(N)=O)c1I
144 to 146 °C | O=C(O)CCCN1C(=O)c2cccc([N+](=O)[O-])c2C1=O
166 to 167 °C | O=C(O)C(Cc1ccccc1)=NNc1ccc(Cl)c(Cl)c1
164 to 165 °C | CC(C)(NCc1ncc[nH]1)c1ccc(Cl)cc1
50.1 to 51 °C | CCCCCOC(=O)Oc1ccc(-c2ccc(C#N)cc2)cc1
120 to 122 °C | COc1cccc(C2(C(N)=O)CCCCC2)c1
298 to 300 °C | CC(=O)N1CCN(c2ncc3c(=O)c(C(=O)O)c[nH]c3n2)CC1
71 to 73 °C | Cc1c(C)c2c(c(C)c1N)CC(C)(CN1CCC(Cc3ccccc3)CC1)O2 (stereo unspecified)
277 to 280 °C | N#Cc1c(N)nc2ccc([N+](=O)[O-])cc2c1NCc1cccs1
214 °C | Cc1cc(C2CCC(c3ccc(O)cc3)CC2)ccc1O (stereo unspecified)
255 °C | O=C(c1ccc2c(c1)OCCO2)c1ccc2[nH]c(=O)nc(-c3cccc(Cl)c3)c2c1
178 to 180 °C | CNc1nc(-c2cccc(NC(=O)c3ccc(O)cc3)c2)c2cc(OC)c(OC)cc2n1
99 to 100 °C | CCCN(CC)C1(c2ccccc2)c2ccccc2OC1[N+](=O)[O-] (stereo unspecified)
117 to 119 °C | CN(C)CCCc1nc2ccccc2[nH]1
104 to 106 °C | CCC1CCC2C3CC=C4CCCCC4(C)C3CCC12C (stereo unspecified)
151 to 152 °C | CC1(C)CC(S(=O)(=O)Cc2c(C(F)(F)F)nn3c2OCCC3)=NO1
191 to 193 °C | COCCCNC(=O)c1cnn(C)c1C(=O)Nc1ccn2nc(-c3ccccc3)nc2c1
248 to 249 °C | CN(c1cccc2cc(C3=NCC(C)(C(N)=O)S3)[nH]c12)S(=O)(=O)c1cccs1 (stereo unspecified)

melting point | SMILES
208 to 210 °C | c1ccc2c(c1)-c1ccccc1C21c2cccnc2-c2ncccc21
183 °C | O=C(C[C@H]1CCCO1)N[C@H]1CC[C@H](CCN2CCN(c3nccc4c3CCO4)CC2)CC1
104 to 106 °C | CCOC(=O)C1Cc2cc(OC)c(OC)cc2N1C(=O)CCSC(C)=O (stereo unspecified)
132 to 133 °C | Nc1ccc(S(=O)(=O)C[N+](=O)[O-])cc1
160 °C | O=S1(=O)c2cccc3cccc(c23)N1CCN1CCC(=Cc2cc3cc(F)ccc3[nH]2)CC1
158 to 160 °C | NC(=O)c1ccc(CCn2ccn(C3CCc4ccccc4C3)c2=S)cc1 (stereo unspecified)
37 to 42 °C | CC(=O)c1ccnc(N(C)C)c1
94 to 97 °C | CCCCCCCCOC(=O)c1cc(C(C)(C)C)c(OC(=O)c2cc(C(C)(C)C)c(O)c(C(C)(C)C)c2)c(C(C)(C)C)c1
> 260 °C | Nc1nc2c(s1)C(=O)c1ccccc1C2=O
248 to 249 °C | Cc1c(C(=O)O)oc(=O)c2ccccc12
149 to 152 °C | CC(=O)Nc1ccc(C(C)=O)c(F)c1F
189 to 191 °C | CN(c1cccc2cc(C3=NCC(CCN4C(=O)CCC4=O)S3)[nH]c12)S(=O)(=O)c1cccs1 (stereo unspecified)
124 to 126 °C | CCCCCCCSC[C@H](N[C@@H](C)C(=O)O)C(=O)OCC
139 to 141 °C | CCc1oncc1C(=O)Nc1ccc([N+](=O)[O-])cc1
99 to 101 °C | N#CCc1coc2ccc3c(c12)C=CCO3
95 °C | CCOC(=O)C=Cc1ccc([N+](=O)[O-])c(O)c1
154 to 157 °C | Cc1ccc(NC(=O)N(C)C)cc1
147 to 149 °C | CC(C)Nc1cccnc1N1CCN(C(=O)c2ccc(C(=O)NC(CO)CO)cc2)CC1
99.6 to 100 °C | COc1ccc(CCNc2cc(-n3cccn3)nc(-c3cccs3)n2)cc1
101 to 103 °C | CC1C(=O)Oc2cc(N3CCCC3)ccc21 (stereo unspecified)
90 °C | CN(C)C=C(C#N)CNC=O
85 to 90 °C | O=[N+]([O-])c1ccccc1C(O)c1cc2c(Oc3ccc(Cl)cc3)cncc2s1 (stereo unspecified)
166 to 169 °C | CC(=O)N(c1cc2occc(=O)c2cc1Oc1ccccc1)S(C)(=O)=O
104 to 106 °C | COc1ccc2c(c1)OC[C@@H]1CCCN1C2=O
180 °C | CN1CCN(C(=O)c2ccc(-c3cnc4c(c3)N(Cc3cc(F)ccc3F)CCN4)cc2)CC1
219 to 220 °C | O=c1ccc2cc(-c3ccccc3)ccc2n1O
